pEC50, pIC50, pKi: −log10 of the molar value. Where a name gives a salt, the structure may show the parent alone. Activity calls are given as the source filed them. The rule behind the calls is not given here.
Key:
[1] = molecular target: T1, Mu-type opioid receptor (Homo sapiens, UniProt P35372); test: Antagonist activity at human recombinant mu opioid receptor expressed in AequoScreen cells assessed as aequorin-derived receptor-mediated changes in intracellular calcium levels; assay type: functional, cell-based
T1 sequence (P35372 whole entry): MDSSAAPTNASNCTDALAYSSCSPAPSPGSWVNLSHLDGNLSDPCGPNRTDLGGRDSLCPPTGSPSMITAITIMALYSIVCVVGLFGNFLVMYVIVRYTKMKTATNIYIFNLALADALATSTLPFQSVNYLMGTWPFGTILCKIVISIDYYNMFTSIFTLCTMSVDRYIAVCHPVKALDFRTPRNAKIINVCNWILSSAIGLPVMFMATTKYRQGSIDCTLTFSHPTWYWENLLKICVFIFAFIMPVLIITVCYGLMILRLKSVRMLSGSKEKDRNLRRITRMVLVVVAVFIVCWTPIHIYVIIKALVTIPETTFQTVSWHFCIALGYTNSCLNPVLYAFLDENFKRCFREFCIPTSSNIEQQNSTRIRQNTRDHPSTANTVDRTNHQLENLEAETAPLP

[2] = molecular target: T1, Mu-type opioid receptor; test: Agonist activity at human recombinant mu opioid receptor expressed in AequoScreen cells assessed as aequorin-derived receptor-mediated changes in intracellular calcium levels; assay type: functional, cell-based
[3] = molecular target: Beta-2 adrenergic receptor (Cavia porcellus, UniProt Q8K4Z4)
Chain of Beta-2 adrenergic receptor (Q8K4Z4 whole entry): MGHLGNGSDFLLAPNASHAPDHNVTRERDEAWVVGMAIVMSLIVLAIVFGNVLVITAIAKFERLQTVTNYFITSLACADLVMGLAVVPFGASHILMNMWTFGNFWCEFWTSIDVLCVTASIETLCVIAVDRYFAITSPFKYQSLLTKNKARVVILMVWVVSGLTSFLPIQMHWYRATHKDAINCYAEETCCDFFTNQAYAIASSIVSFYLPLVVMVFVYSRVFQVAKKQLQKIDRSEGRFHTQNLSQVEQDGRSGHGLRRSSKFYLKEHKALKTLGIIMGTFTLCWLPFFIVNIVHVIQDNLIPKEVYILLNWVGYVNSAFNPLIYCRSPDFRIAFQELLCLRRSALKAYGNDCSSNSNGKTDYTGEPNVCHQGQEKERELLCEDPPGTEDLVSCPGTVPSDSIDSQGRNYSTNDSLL
Description: Agonist activity at adrenergic beta2 receptor in guinea pig trachea assessed as relaxation of carbachol-induced tissue contraction

[4] = molecular target: T1, Mu-type opioid receptor; test: Displacement of [3H]DAMGO from human recombinant mu opioid receptor expressed in HEK293 cells by scintillation counting; assay type: cell-based

With `CC(C)N[C@@H]1CCn2c(=O)[nH]c3cccc(c32)[C@H]1O` (racemic) the Emax [1] was 93% and the Activity [2] was “inactive”.

With `CC(C)(C)NCC(O)c1cc(Cl)c(N)c(Cl)c1` (racemic) [CLENBUTEROL] the pEC50 [3] was 7.89.

For `CC(C)N[C@@H]1CCn2c(=O)[nH]c3cccc(c32)[C@H]1O`, the Activity [2] was “inactive”.

In the case of `CC(C)N[C@H]1CCn2c(=O)[nH]c3cccc(c32)[C@@H]1O`, the Emax [1] was 96%, the pIC50 [1] was 3.85 and the Activity [2] was “inactive”.

Compound `CC(C)N[C@@H]1CCn2c(=O)[nH]c3cccc(c32)[C@H]1O` [ZILPATEROL HYDROCHLORIDE] has a pIC50 [1] of less than 3.00.

Compound `CC(C)N[C@@H]1CCn2c(=O)[nH]c3cccc(c32)[C@H]1O` (racemic) [ZILPATEROL HYDROCHLORIDE] has a pIC50 [4] of 4.51, a pKi [4] of 4.89 and a pIC50 [1] of 3.52.
